Our source for the inhibition values is patent US8440720B2, “Methods of use of antiviral compounds” (Influmedix, Inc., priority 2009, dated 2013).

For this assay, the target named is T1, M2(S31) (Influenza A virus, UniProt P0DOF5).
T1 construct: expressed in transfected cells; host or cells: CHO cell membranes
The experiment in a line: Cell-free electrophysiology of M2 proton channels on solid supported membranes (IonGate SURFE2R). The settings on record: 25 μM compound, activation by pH jump 7.0 to 6.0, read-out: IonGate_M2(S31)_Screen % Inhibition at 25 μM. Type of assay: biochemical.

The structures appear in SMILES notation.

T1 sequence (P0DOF5 whole entry): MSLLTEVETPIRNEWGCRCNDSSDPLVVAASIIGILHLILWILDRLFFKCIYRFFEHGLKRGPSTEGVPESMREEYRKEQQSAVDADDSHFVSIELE

On to `O=[N+]([O-])CC12CC3CC(C1)C(O)C(C3)C2` (stereo not shown) [Cpd 27, 5-Nitromethyl-adamantan-2-ol], for which the inhibition at 25 µM lay within 11 to 50%. Consider `NC12CC3CC(C1)C(=O)C(C3)C2` [Cpd 15], for which the inhibition at 25 µM is 11 to 50%.

As to `NC12CC3CC(C1)C(=NO)C(C3)C2` [Cpd 23, 5-Amino-adamantan-2-one oxime], the inhibition at 25 µM fell in the range of 11 to 50%.

On to `NC12CC3CC(C1)C(O)C(C3)C2` (stereo not shown) [Cpd 14], for which the inhibition at 25 µM lay in the range of 11 to 50%. Next, `N=C(N)NC12CC3CC(CC(F)(C3)C1)C2` [Cpd 31, N-(3-Fluoro-adamantan-1-yl)-guanidine]: 11 to 50%; `N#CC1C2CC3CC1CC(CN)(C3)C2` (stereo not shown) [Cpd 26, 5-Aminomethyl-adamantane-2-carbonitrile]: 51 to 95%. To `NC12CC3CC(C1)C(CF)C(C3)C2` (stereo not shown) [Cpd 21, 4-Fluoromethyl-adamantan-1-ylamine] belongs 51 to 95%. `NCC12CC3CC(C1)C(F)C(C3)C2` (stereo not shown) [Cpd 8, C-(4-Fluoro-adamantan-1-yl)-methylamine]: the inhibition at 25 µM lay in the range of 51 to 95%. To `NC12CC3CC(C1)CC(S)(C3)C2` [Cpd 29] belongs 51 to 95%; to `c1cn(C23CC4CC(CC(C4)C2)C3)cn1` [Cpd 2], 11 to 50%. Next, `NC12CC3CC(C1)C(=S)C(C3)C2` [Cpd 19, 5-Amino-adamantane-2-thione]: 11 to 50%; `NCC12CC3CC(C1)C(O)C(C3)C2` (stereo not shown) [Cpd 7]: 11 to 50%. Turning to `NC12CC3CC(C1)C(F)C(C3)C2` (stereo not shown) [Cpd 13, 4-Fluoroadamantan-1-amine], the inhibition at 25 µM lay in the range of 51 to 95%.

As to `NC12CC3CC(C1)C(F)(F)C(C3)C2` [Cpd 17, 4,4-Difluoro-adamantan-1-ylamine], the inhibition at 25 µM was in the range of 11 to 50%. As for `NCC(O)C12CC3CC(CC(C3)C1)C2` (racemic) [Cpd 5], the inhibition at 25 µM is 51 to 95%.

In the case of `COC1C2CC3CC1CC(CN)(C3)C2` (stereo not shown) [Cpd 25, C-(4-Methoxy-adamantan-1-yl)-methylamine], the inhibition at 25 µM fell in the range of 51 to 95%.

For `NC12CC3CC(CC(C3)C1O)C2` (stereo not shown) [Cpd 34], the inhibition at 25 µM was in the range of 51 to 95%.

`C1CNC(C23CC4CC(CC(C4)C2)C3)=N1` [Cpd 6]: the inhibition at 25 µM lay within 51 to 95%. Regarding `N#CC1C2CC3CC1CC(N)(C3)C2` (stereo not shown) [Cpd 16, 5-Amino-adamantane-2-carbonitrile], the inhibition at 25 µM lay in the range of 51 to 95%. In the case of `NC12CC3CC(C1)C(S)C(C3)C2` (stereo not shown) [Cpd 20, 5-Amino-adamantane-2-thiol], the inhibition at 25 µM lay in the range of 11 to 50%. For `CC1(O)C2CC3CC(C2)CC1(N)C3` (stereo not shown) [Cpd 35, 1-Amino-2-methyl-adamantan-2-ol], the inhibition at 25 µM was in the range of 11 to 50%. Next, `c1ncn(C23CC4CC(CC(C4)C2)C3)n1` [Cpd 1]: 11 to 50%. To `COC12CC3CC(CC(N)(C3)C1)C2` [Cpd 32] belongs 1 to 10%; to `NC12CC3CC(C1)C1(OCCO1)C(C3)C2` [Cpd 24], 11 to 50%.

In the case of `O=[N+]([O-])C12CC3CC(CC(F)(C3)C1)C2` [Cpd 30, 3-Fluoro-1-nitro-adamantane], the inhibition at 25 µM lay in the range of 1 to 10%. Regarding `Nc1nc(N)n(C23CC4CC(CC(C4)C2)C3)n1` [Cpd 3], the inhibition at 25 µM was 11 to 50%. To `CC1(O)C2CC3CC1CC(CN)(C3)C2` (stereo not shown) [Cpd 11, 5-Aminomethyl-2-methyl-adamantan-2-ol] belongs 11 to 50%. Next, `O=[N+]([O-])CC12CC3CC(C1)C(F)C(C3)C2` (stereo not shown) [Cpd 28, 4-Fluoro-1-nitromethyl-adamantane]: 11 to 50%; `CC1(F)C2CC3CC1CC(N)(C3)C2` (stereo not shown) [Cpd 18, 4-Fluoro-4-methyl-adamantan-1-ylamine]: 51 to 95%; `Nc1ccn(C23CC4CC(CC(C4)C2)C3)n1` [Cpd 4]: 11 to 50%. To `NC12CC3CC(C1)CC(F)(C3)C2` [Cpd 12] belongs 51 to 95%.

The term inhibition denotes how much of the control response was suppressed.
